In publication PMC8222354 (2021):

What was measured:
[1] = test system: Tt preQ1-I RNA C15U (RNA, riboswitch) CUGGGUCGCAGUAAUCCCAGUUAACAAAACAAG; assay: isothermal titration calorimetry; settings: 100 mM KCl, 2 mM MgCl2; 50 mM MES, pH 6.0, 20 °C
[2] = test system: Tt preQ1-I RNA wildtype (RNA, riboswitch) CUGGGUCGCAGUAACCCCAGUUAACAAAACAAG; assay: methylation kinetics, anion-exchange HPLC (kobs versus ligand concentration); settings: 100 mM KCl, 2 mM MgCl2; MES, pH 6.0, 37 °C; apparent Michaelis constant; ligand methylates C15 N3 (covalent methyl transfer)
[3] = test system: Tt preQ1-I RNA wildtype (RNA, riboswitch) CUGGGUCGCAGUAACCCCAGUUAACAAAACAAG; assay: isothermal titration calorimetry; settings: 100 mM KCl, 2 mM MgCl2; 50 mM MES, pH 6.0, 20 °C

Row | Kd^ITC [1] | Km,app [2] | Kd^ITC [3] | SMILES
1 | 72.2 ± 2.1 µM | ~ 230 μM |  | COc1nc(N)nc2[nH]cc(CN)c12
2 |  |  | 0.043 ± 0.0019 µM | NCc1c[nH]c2nc(N)[nH]c(=O)c12
